According to the supplement of paper PMC8882468:

Columns and labels:
Assay in all cases: CTG-3D luminescence at 96 h relative to day-0 seeding control (ratio to day 0); higher = more growth / less cytotoxicity; PDxO 3D drug screen, 96 h, CTG-3D normalised to day-0 seeding control.
[1] = test system: HCI-017.E2 (organoid from an ER-positive breast cancer xenograft)
[2] = test system: HCI-002 (organoid from a triple-negative breast cancer xenograft)
[3] = test system: HCI-023 (organoid from a triple-negative breast cancer xenograft)
[4] = test system: HCI-001 (organoid from a triple-negative breast cancer xenograft)
[5] = test system: MDA-MB-231

NC(=O)Nc1cc(-c2cccc(F)c2)sc1C(=O)N[C@H]1CCCNC1 [AZD7762]
CTG-3D luminescence at 96 h
Settings	12.5 pM	0.00025 µM	0.005 µM	0.1 µM	1 µM	10 µM	100 µM	625 fM
[1]	1.919	2	2.23	1.853	1.22	1.22	0.00946	2.25
[5]	4.48	4.32	4.52	3.96	1.4	0.628	0.0187	4.49

CTG-3D luminescence at 96 h
Settings	12.5 pM	0.00025 µM	0.005 µM	0.1 µM	1 µM	10 µM	100 µM	625 fM
[1], days in culture: 85	2.53	3.05	2.76	2.37	1.67	1.26	0.0135	2.7
[2], days in culture: 62	2.52	2.46	2.85	2.92	1.41	0.539	0.00339	3.08
[2], days in culture: 82	2.71	3.02	2.27	2.44	1.47	0.623	0.00321	2.87
[2], days in culture: 91	3.98	3.93	3.26	3.87	2.42	0.946	0.00426	4.19
[2], days in culture: 191	2.47	2.51	2.36	2.27	2	0.525	0.00388	2.69
[2], days in culture: 209	2.16	2.27	2.12	1.89	1.31	0.332	0.00089	2.27
[2], days in culture: 227	5.71	5.98	5.18	5.24	2.21	0.595	-0.201	6.1
[3], days in culture: 111	1.36	1.49	1.15	0.765	0.201	0.0705	-9.95e-05	1.52
[3], days in culture: 128	1.552	1.6	1.32	0.581	0.161	0.133	0.000895	1.67
[4], days in culture: 240	1.67	0.879	1.07	1	0.663	0.189	0.00603	1.14
[4], days in culture: 260	1.93	1.02	1.44	0.935	0.787	0.243	0.00469	1.07
[4], days in culture: 269	1.68	1.84	1.41	1.25	0.48	0.388	-0.00671	1.59
[4], days in culture: 327	1.38	1.77	1.85	1.38	0.567	0.168	0.00741	1.6
[4], days in culture: 346	1.38	1.49	1.23	0.907	0.392	0.184	0.0108	1.21
[4], days in culture: 364	1.53	1.16	1.51	1.03	0.466	0.201	0.00492	1.71
